Results as given in US11878965B2, “Inhibitors of peptidylarginine deiminases” (Gilead Sciences, Inc., priority 2020, dated 2024).

Biological target: human PAD4 (Homo sapiens (Human), UniProt Q9UM07)
Assay: In Vitro PAD4 BAEE Biochemical Assay
Conditions: geometric mean of multiple experiments
Procedure, shortened: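 Deimination of BAEE substrate (3 mM) measured as ammonia via o-phthalaldehyde–DTT isoindole fluorescence, 405/535 nm. Tag-free bacterially expressed human PAD4 at 5 nM with 2 mM calcium chloride, pH 7.6 MOPS buffer, 30 min compound preincubation then 2 h reaction, both at 25 °C.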

[1] = human PAD4, BAEE substrate, 5 nM PAD4, 2 mM calcium chloride, 3 mM BAEE
[2] = recombinant PAD4 5 nM, 2 mM calcium chloride, 3 mM BAEE substrate

Chain of human PAD4 (Q9UM07 2-663): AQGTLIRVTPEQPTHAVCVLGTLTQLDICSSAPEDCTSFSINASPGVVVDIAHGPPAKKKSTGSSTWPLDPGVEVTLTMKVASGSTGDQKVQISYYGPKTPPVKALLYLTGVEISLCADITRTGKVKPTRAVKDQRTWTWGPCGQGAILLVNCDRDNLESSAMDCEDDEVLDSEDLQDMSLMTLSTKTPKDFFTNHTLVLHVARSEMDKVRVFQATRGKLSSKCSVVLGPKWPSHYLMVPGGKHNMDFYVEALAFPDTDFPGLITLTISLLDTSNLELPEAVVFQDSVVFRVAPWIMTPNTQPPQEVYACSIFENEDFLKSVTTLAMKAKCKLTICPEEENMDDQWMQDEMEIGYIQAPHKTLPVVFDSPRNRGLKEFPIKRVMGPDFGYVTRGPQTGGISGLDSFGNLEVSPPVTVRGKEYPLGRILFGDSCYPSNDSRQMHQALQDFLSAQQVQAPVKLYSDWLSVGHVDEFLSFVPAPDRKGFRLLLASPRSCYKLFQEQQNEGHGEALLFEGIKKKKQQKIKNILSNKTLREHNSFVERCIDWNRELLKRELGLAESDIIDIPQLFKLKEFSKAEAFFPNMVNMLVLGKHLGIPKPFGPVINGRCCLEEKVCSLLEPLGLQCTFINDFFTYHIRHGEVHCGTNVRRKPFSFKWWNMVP

| Molecule | IC50 [1] [nM] | IC50 [2] [nM] |
| --- | --- | --- |
| C[C@@H](NC(=O)[C@@H]1CC1(F)F)c1ccc2cc(-c3nc4cc(C(=O)N5C[C@H](N)[C@@H]6CC[C@H]5C6)cc(F)c4n3C3CC3)n(CC3CC3)c2n1 [Example 226, (S)-N-((R)-1-(2-(5-((1S,4R,5R)-4-amino-2-azabicyclo[3.2.1]octane-2-carbonyl)-1-cyclopropyl-7-fluoro-1H-benzo[d]imidazol-2-yl)-1-(cyclopropylmethyl)-1H-pyrrolo[2,3-b]pyridin-6-yl)ethyl)-2,2-difluorocyclopropane-1-carboxamide] | 53.2 | – |
| COc1cc(C(=O)N2C[C@H](N)[C@@H]3CC[C@H]2C3)cc2nc(-c3cc4ccc([C@@H](C)NC(=O)c5cnn(C(F)F)c5)nc4n3CC3CC3)n(C)c12 [Example 224, N-((R)-1-(2-(5-((1S,4R,5R)-4-amino-2-azabicycIo[3.2.1]octane-2-carbonyl)-7-methoxy-1-methyl-1H-benzo[d]imidazol-2-yl)-1-(cyclopropylmethyl)-1H-pyrrolo[2,3-b]pyridin-6-yl)ethyl)-1-(difluoromethyl)-1H-pyrazole-4-carboxamide] | 48.1 | – |
| COc1cc(C(=O)N2C[C@H](N)[C@@H]3CC[C@H]2C3)cc2nc(-c3cc4ccc([C@@H](C)NC(=O)c5ccc(C(F)F)nc5)nc4n3CC3CC3)n(C)c12 [Example 297, N-((R)-1-(2-(5-((1S,4R,5R)-4-amino-2-azabicyclo[3.2.1]octane-2-carbonyl)-7-methoxy-1-methyl-1H-benzo[d]imidazol-2-yl)-1-(cyclopropylmethyl)-1H-pyrrolo[2,3-b]pyridin-6-yl)ethyl)-6-(difluoromethyl)nicotinamide] | – | 65.9 |
| COc1cc(C(=O)N2C[C@H](N)[C@@H]3CC[C@H]2C3)cc2nc(-c3cc4ccc([C@@H](C)NC(=O)C56CC(F)(C5)C6)nc4n3CC3(F)CC3)n(C)c12 [Example 291, N-((R)-1-(2-(5-((1S,4R,5R)-4-amino-2-azabicyclo[3.2.1]octane-2-carbonyl)-7-methoxy-1-methyl-1H-benzo[d]imidazol-2-yl)-1-((1-fluorocyclopropyl)methyl)-1H-pyrrolo[2,3-b]pyridin-6-yl)ethyl)-3-fluorobicyclo[1.1.1] pentane-1-carboxamide] | – | 91.9 |
| COc1cc(C(=O)N2CCC[C@@H](N)C2)cc2nc(-c3cc4ccc([C@@H](C)NC(=O)C5CC5(F)F)cc4n3CC3CC3)n(C3CC3)c12 (stereo partly drawn) [Example 153, N-((R)-1-(2-(5-((R)-3-aminopiperidine-1-carbonyl)-1-cyclopropyl-7-methoxy-1H-benzo[d]imidazol-2-yl)-1-(cyclopropylmethyl)-1H-indol-6-yl)ethyl)-2,2-difluorocyclopropane-1-carboxamide] | 102 | – |
| COc1cc(C(=O)N2C[C@H](N)CCN2C)cc2nc(-c3cc4ccc([C@@H](C)NC(=O)c5c(F)cccc5F)nc4n3CC3CC3)n(C)c12 [Example 210, N-((R)-1-(2-(5-((R)-5-amino-2-methylhexahydropyridazine-1-carbonyl)-7-methoxy-1-methyl-1H-benzo[d]imidazol-2-yl)-1-(cyclopropylmethyl)-1H-pyrrolo[2,3-b]pyridin-6-yl)ethyl)-2,6-difluorobenzamide] | 129 | – |
| COc1cc(C(=O)N2C[C@H](N)CCN2C)cc2nc(-c3cc4ccc([C@@H](C)NC(=O)C5(c6ccc(C(F)(F)F)cc6)CC5)nc4n3CC3CC3)n(C)c12 [Example 163, N-((R)-1-(2-(5-((R)-5-amino-2-methylhexahydropyridazine-1-carbonyl)-7-methoxy-1-methyl-1H-benzo[d]imidazol-2-yl)-1-(cyclopropylmethyl)-1H-pyrrolo[2,3-b]pyridin-6-yl)ethyl)-1-(4-(trifluoromethyl)phenyl)cyclopropane-1-carboxamide] | 4050 | – |
| COc1cc(C(=O)N2CCCC3(CCN3)C2)cc2nc(-c3cc4ccc(N(C(F)F)S(C)(=O)=O)nc4n3CC3CC3)n(C)c12 (centres unmarked) [Example 75, N-(1-(cyclopropylmethyl)-2-(7-methoxy-1-methyl-5-(1,6-diazaspiro[3.5]nonane-6-carbonyl)-1H-benzo[d]imidazol-2-yl)-1H-pyrrolo[2,3-b]pyridin-6-yl)-N-(difluoromethyl) methanesulfonamide] | 50000 | – |
| COc1cc(C(=O)N2C[C@H](N)[C@@H]3CC[C@H]2C3)cc2nc(-c3cc4ccc([C@@H](C)NC(=O)C56C7C8C9C7C5C9C86)nc4n3CC3CC3)n(C)c12 (stereo partly drawn) [Example 299, N-((R)-1-(2-(5-((1S,4R,5R)-4-amino-2-azabicyclo[3.2.1]octane-2-carbonyl)-7-methoxy-1-methyl-1H-benzo[d]imidazol-2-yl)-1-(cyclopropylmethyl)-1H-pyrrolo[2,3-b]pyridin-6-yl)ethyl)cubane-1-carboxamide] | – | 74.3 |
| COc1cc(C(=O)N2C[C@H](N)CCN2C)cc2nc(-c3cc4ccc([C@@H](C)NC(=O)c5ncccc5C)nc4n3CC3CC3)n(C)c12 [Example 175, N-((R)-1-(2-(5-((R)-5-amino-2-methylhexahydropyridazine-1-carbonyl)-7-methoxy-1-methyl-1H-benzo[d]imidazol-2-yl)-1-(cyclopropylmethyl)-1H-pyrrolo[2,3-b]pyridin-6-yl)ethyl)-3-methylpicolinamide] | 139 | – |
| COc1cc(C(=O)N2CCC[C@@H](N)[C@H]2C)cc2nc(-c3cc4ccc(N(C)S(C)(=O)=O)nc4n3C3CC3)n(CC3CC3)c12 [Example 49, N-(2-(5-((2R,3R)-3-amino-2-methylpiperidine-1-carbonyl)-1-(cyclopropylmethyl)-7-methoxy-1H-benzo[d]imidazol-2-yl)-1-cyclopropyl-1H-pyrrolo[2,3-b]pyridin-6-yl)-N-methylmethanesulfonamide] | 487 | – |
| CCN(C(=O)OC)c1ccc2cc(-c3nc4cc(C(=O)N5CCC[C@@H](N)C5)cc(OC)c4n3C)n(CC3CC3)c2n1 [Example 111, (R)-methyl (2-(5-(3-aminopiperidine-1-carbonyl)-7-methoxy-1-methyl-1H-benzo[b]imidazol-2-yl)-1-(cyclopropylmethyl)-1H-pyrrolo [2,3-b]pyridin-6-yl) (ethyl)carbamate] | 234 | – |
| COc1cc(C(=O)N2[C@H]3CC[C@@H]2[C@H](N)C3)cc2nc(-c3cc4ccc([C@@H](C)NC(=O)Cn5cccn5)nc4n3CC3CC3)n(C)c12 [Example 174, N-((R)-1-(2-(5-((1R,2R,4S)-2-amino-7-azabicyclo[2.2.1]heptane-7-carbonyl)-7-methoxy-1-methyl-1H-benzo[d]imidazol-2-yl)-1-(cyclopropylmethyl)-1H-pyrrolo[2,3-b]pyridin-6-yl)ethyl)-2-(1H-pyrazol-l-yl)acetamide] | 45.1 | – |
| COc1cc(C(=O)N2C[C@H](N)[C@@H]3CC[C@H]2C3)cc2nc(-c3cc4ccc([C@@H](C)NC(=O)c5cnc(C(F)(F)F)cn5)nc4n3CC3CC3)n(C)c12 [Example 318, N-((R)-1-(2-(5-((1S,4R,5R)-4-amino-2-azabicyclo[3.2.1]octane-2-carbonyl)-7-methoxy-1-methyl-1H-benzo[d]imidazol-2-yl)-1-(cyclopropylmethyl)-1H-pyrrolo[2,3-b]pyridin-6-yl)ethyl)-5-(trifluoromethyl)pyrazine-2-carboxamide] | – | 252 |
| COc1cc(C(=O)N2CCC[C@@H](N)[C@H]2C)cc2nc(-c3cc4ccc(N=S(C)(C)=O)nc4n3CC3CC3)n(C)c12 [Example 95, ((2-(5-((2R,3R)-3-amino-2-methylpiperidine-1-carbonyl)-7-methoxy-1-methyl-1H-benzo[d]imidazol-2-yl)-1-(cyclopropylmethyl)-1H-pyrrolo [2,3-b]pyridin-6-yl)imino)dimethyl-16-sulfanone] | 1570 | – |
| 2-(1-(cyclopropylmethyl)- 6-((N-(difluoromethyl) methyl)sulfonamido)- 1H-pyrrolo[2,3-b]pyridin-2- yl)-6-fluoro-N-((3S,4S)- 4-fluoropiperidin- 3-yl)-1-methyl-1H- benzo[d]imidazole-5- carboxamide [Example 93] | 146 | – |
| COc1cc(C(=O)N2[C@H]3CC[C@@H]2[C@H](N)C3)cc2nc(-c3cc4ccc(-n5c(C)cccc5=O)nc4n3CC3CC3)n(C)c12 [Example 255, 1-(2-(5-((1R,2R,4S)-2-amino-7-azabicyclo[2.2.1]heptane-7-carbonyl)-7-methoxy-1-methyl-1H-benzo[d]imidazol-2-yl)-1-(cyclopropylmethyl)-1H-pyrrolo[2,3-b]pyridin-6-yl)-6-methylpyridin-2(1H)-one] | 40.2 | – |
| CCCN(c1ccc2cc(-c3nc4cc(C(=O)N5CCC[C@@H](N)C5)cc(OC)c4n3C)n(CC3CC3)c2n1)S(C)(=O)=O [Example 10, (R)-N-(2-(5-(3-aminopiperidine-1-carbonyl)-7-methoxy-1-methyl-1H-benzo[d]imidazol-2-yl)-1-(cyclopropylmethyl)-1H-pyrrolo [2,3-b]pyridin-6-yl)-N-propylmethanesulfonamide] | 330 | – |
| [2H][C@@]1(N)CCCN(C(=O)c2cc(OC)c3c(c2)nc(-c2cc4ccc(N(C(F)F)S(C)(=O)=O)nc4n2CC2CC2)n3C)C1 [Example 45, (R)-N-(2-(5-(3-aminopiperidine-1-carbonyl-3-d)-7-methoxy-1-methyl-1H-benzo[d]imidazol-2-yl)-1-(cyclopropylmethyl)-1H-pyrrolo[2,3-b]pyridin-6-yl)-N-(difluoromethyl) methanesulfonamide] | 110 | – |
| CCN(C(=O)OC)c1ccc2cc(-c3nc4cc(C(=O)N5CCC[C@@H](N)C5)ccc4n3C3CC3)n(CC3CC3)c2n1 [Example 113, (R)-methyl (2-(5-(3-aminopiperidine-1-carbonyl)-1-cyclopropyl-1H-benzo[d]imidazol-2-yl)-1-(cyclopropylmethyl)-1H-pyrrolo[2,3-b]pyridin-6-yl)(ethyl)carbamate] | 196 | – |
